In paper PMC11111404, “Discovery of potent small-molecule inhibitors of lipoprotein(a) formation” (Nature, 2024):
“And” between values parts separate entries of the source, which are not always exact repeats. Equal entries are not always repeated.

Experiments:
[1] = tested on: Lp(a); test: Lp(a) levels in cynomolgus monkeys; assay type: in vivo, cynomolgus monkey (Macaca fascicularis); design: key to Mean_pCFB_vs_Veh / Mean_pCFB_vs_Veh (Lp(a)): % change from pre-dose, treated group compared with vehicle; key to Mean_pCFB / Mean_pCFB (Lp(a)): % change in Lp(a) from before dosing; Lp(a): unit not given here; details: for Lp(a): Fig 3b raw data; for Mean_pCFB / Mean_pCFB_vs_Veh: Lp(a), female cynomolgus monkeys; for maximum decrease of median Lp(a) levels / %Lp(a) max decrease (dose, mg/kg): cynomolgus monkeys; for maximum decrease of median Lp(a) levels: after 5 days; for %Lp(a) max decrease (dose, mg/kg): 14 days dosing
Description: Female or male Chinese Macaca fascicularis cynomolgus monkeys (as described in the figure legends) of unspecified ages with body weight ranging from 2.0 kg to 5.0 kg were housed in cages with a standard light cycle (12-h light, 12-h dark) at room temperature (20–26 °C); the relative humidity ranged from 30% to 70%. Monkeys were given fruits, vegetables or dietary enrichment as a form of environmental enrichment, and various cage enrichment devices. Purina Lab diet 5048C was provided BID and individual monkeys were identified by cage card. The monkeys were randomized to treatment groups by body weight and baseline plasma Lp(a) concentration, as determined by a commercially available Randox assay (Randox LP2757), using a BRAT for the study. In an example cynomolgus monkey study in which 39 monkeys were prescreened for baseline Lp(a) levels, the average Lp(a) level was 350 ± 57 µg ml^−1 (range 53–1,667 µg ml^−1). Monkeys were dosed orally with vehicle (purified water) or compounds QD or BID for 14 days, at dose levels and frequencies as previously described for each compound. Plasma samples were collected on days before dosing to establish baseline Lp(a) and after the morning dose during the study. Lp(a) levels were measured by an investigator who was blinded to group allocation using the Randox assay, and were quantified relative to the calibrator series (Randox LP3404). Data were analysed in GraphPad Prism v.9.5.1. The Lp(a) percentage change from before dosing in non-human primates was analysed by repeated measures ANOVA in SAS v.9.4 (SAS). At each time point, the Lp(a) percentage change for each treated group was compared with vehicle by the Bonferroni method.

[2] = target: T1, plasmin activity (Rattus norvegicus, UniProt Q01177); test: Rat plasma plasmin (plasminogen) activity ex vivo after oral dosing; assay type: in vivo; details: for PLG activity (Vmax), Plasminogen (mean of replicates) / PLG activity (Vmax), Replicate 1 / PLG activity (Vmax), Replicate 2 / PLG activity % change from Vehicle: rat, individual animals; for PLG activity % change from Vehicle: Vehicle mean 267.0
T1 construct: Plasma samples were collected via the abdominal aorta; from tissue; host or cells: Citrated plasma of orally dosed male Sprague Dawley rats
Description: Male Sprague Dawley rats (Charles River, average body weight 310 g, aged eight to nine weeks old) were housed in cages with a standard light cycle (12-h light, 12-h dark), at room temperature (22 ± 4 °C), with a relative humidity of 30–70%. Rats were identified by numbers on the cage cards. After arrival, rats were fed on a normal diet (Harlan Teklad diet 2014) and randomized to treatment groups (n = 5 per group) by baseline plasma plasminogen concentration and activity using a BRAT. LSN3441732 and LY3473329 were administered QD orally at three dose levels (3.7, 12.3 and 37 mg kg^−1; 3.2, 10.5 and 31.6 mg kg^−1 per dose, respectively) or vehicle (10 ml kg^−1, 1% HEC, 0.25% Tween-80, Antifoam) for four days. Terminal blood was drawn under general anaesthesia 24 h after the day-4 oral dose. Plasma samples were collected via the abdominal aorta into a premeasured anticoagulant BD Vacutainer used for blood collection (2.7 ml, buffered sodium citrate). The liver was flash frozen in liquid nitrogen. To measure plasminogen activity, 100 µl plasma per well was added to a 96-well plate (Corning) and the following were added to the indicated concentrations: 7.5 mM CaCl2 and 117 mM NaCl. Wells were mixed and warmed to 37 °C. Urokinase (Millipore) was added at 125 U per well and the plate was incubated at 37 °C for 4 min. The plasminogen substrate Chromogenix S-2251 (DiaPharma) was added to a concentration of 3.3 mM. The mixture was added and the plate was sealed and placed in a prewarmed plate reader, shaken, and the absorbance read every 30 s for 2 h. The maximum slope for each curve was determined and the percentage inhibition was calculated relative to untreated controls. Plasminogen protein was measured using ELISA kits for rat (Abcam ab157740) according to the manufacturer’s instructions. Plasminogen activity (percentage) and mass (µg ml^−1) in rat were analysed by ANOVA in JMP 16.1.0. The percentage reduction of plasminogen activity and mass for each treated group was compared with vehicle by Dunnett’s method.

[3] = 2mpk BID, Day 1, individual cynos
[4] = 2mpk BID, Day 3, individual cynos
[5] = 2mpk BID, Day 5, individual cynos
[6] = 2mpk BID, Day 9, individual cynos
[7] = 2mpk BID, Day 14, individual cynos
[8] = 10mpk BID, Day 1, individual cynos
[9] = 10mpk BID, Day 3, individual cynos
[10] = 10mpk BID, Day 5, individual cynos
[11] = 10mpk BID, Day 9, individual cynos
[12] = 10mpk BID, Day 14, individual cynos

T1 sequence (Q01177 20-812 limits assumed): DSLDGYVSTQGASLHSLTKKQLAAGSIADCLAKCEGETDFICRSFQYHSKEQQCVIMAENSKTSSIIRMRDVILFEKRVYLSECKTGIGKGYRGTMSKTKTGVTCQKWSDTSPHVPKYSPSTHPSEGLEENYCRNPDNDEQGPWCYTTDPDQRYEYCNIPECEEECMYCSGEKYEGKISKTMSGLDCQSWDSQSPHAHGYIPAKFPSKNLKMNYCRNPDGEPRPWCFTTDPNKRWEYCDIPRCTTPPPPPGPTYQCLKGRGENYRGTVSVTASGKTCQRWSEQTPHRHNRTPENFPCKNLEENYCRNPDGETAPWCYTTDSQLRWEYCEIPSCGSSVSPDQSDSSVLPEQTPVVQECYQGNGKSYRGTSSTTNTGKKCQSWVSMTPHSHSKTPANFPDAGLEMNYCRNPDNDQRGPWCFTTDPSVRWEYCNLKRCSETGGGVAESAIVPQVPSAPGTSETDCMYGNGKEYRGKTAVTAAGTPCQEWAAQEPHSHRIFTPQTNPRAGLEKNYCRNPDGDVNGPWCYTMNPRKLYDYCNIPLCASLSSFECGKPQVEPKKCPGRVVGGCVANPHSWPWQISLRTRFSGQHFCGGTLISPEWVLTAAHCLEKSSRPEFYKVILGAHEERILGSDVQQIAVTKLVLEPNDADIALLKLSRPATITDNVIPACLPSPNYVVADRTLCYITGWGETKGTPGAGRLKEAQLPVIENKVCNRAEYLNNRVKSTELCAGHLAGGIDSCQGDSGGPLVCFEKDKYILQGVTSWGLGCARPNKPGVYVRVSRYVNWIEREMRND

Compound: Cl.Cl.O=C(Nc1cccc(C[C@H](C(=O)O)[C@H]2CCNC2)c1)Nc1cccc(C[C@H](C(=O)O)[C@H]2CCNC2)c1 [LSN3441732]
- pCFB (pct chng from baseline, Lp(a)) [1, 3]: -0.8715 pct and -9.178 pct and 9.115 pct and 2.958 pct and -14.9999 pct and -4.998 pct and -4.507 pct and 6.837 pct
- Lp(a) [1, 3]: 66.699 and 27.339 and 53.349 and 76.924
- pCFB (pct chng from baseline, Lp(a)) [1, 4]: -26.3908 pct and -7.214 pct and -20.0294 pct and -41.4028 pct and -34.8821 pct and 12.2337 pct and -15.3593 pct and -16.4032 pct
- Lp(a) [1, 4]: 59.119 and 21.392 and 39.615 and 78.588
- pCFB (pct chng from baseline, Lp(a)) [1, 5]: -60.4222 pct and -23.7562 pct and -53.193 pct and -73.9823 pct and -52.767 pct and 10.0362 pct and -38.056 pct and -25.4812 pct
- Lp(a) [1, 5]: 43.266 and 19.069 and 21.3 and 64.577
- pCFB (pct chng from baseline, Lp(a)) [1, 6]: -46.3414 pct and -22.6794 pct and -48.3056 pct and -58.1644 pct and -48.9556 pct and 33.2038 pct and -34.8562 pct and -42.8477 pct
- Lp(a) [1, 6]: 45.501 and 14.625 and 28.878
- pCFB (pct chng from baseline, Lp(a)) [1, 7]: -26.8256 pct and -20.2744 pct and -41.4618 pct and -48.6082 pct and -43.1214 pct and 61.8786 pct and -34.6787 pct and -24.6097 pct
- Lp(a) [1, 7]: 24.162 and 45.625 and 19.292 and 39.381
- Lp(a) ([1]; 2mpk BID, Day -1 (pre-dose), individual cynos): 76.499 and 27.63 and 59.314 and 80.73
- Lp(a) ([1]; 2mpk BID, Day -14 (pre-dose), individual cynos): 63.195 and 23.549 and 48.322 and 88.666
- pCFB (pct chng from baseline, Lp(a)) [1, 8]: 6.085 pct and 18.5121 pct and 11.2235 pct and -12.4022 pct and 3.527 pct and -18.0886 pct and 0.3688 pct and -16.5769 pct
- Lp(a) [1, 8]: 42.107 and 61.295 and 35.316 and 53.315 and 65.761 and 52.068 and 17.81 and 84.78
- pCFB (pct chng from baseline, Lp(a)) [1, 9]: -30.0594 pct and -45.1266 pct and -34.624 pct and -67.6349 pct and -34.8372 pct and -50.8715 pct and -17.9315 pct and -61.9012 pct
- Lp(a) [1, 9]: 19.23 and 40.411 and 16.352 and 31.338 and 24.297 and 32.773 and 10.682 and 69.322
- pCFB (pct chng from baseline, Lp(a)) [1, 10]: -74.5889 pct and -41.8647 pct and -61.4356 pct and -52.9091 pct and -78.302 pct and -39.7105 pct and -69.6086 pct and -32.2067 pct
- Lp(a) [1, 10]: 12.826 and 33.59 and 11.492 and 22.573 and 16.289 and 30.322 and 6.608
- pCFB (pct chng from baseline, Lp(a)) [1, 11]: -56.8372 pct and -40.6982 pct and -59.7007 pct and -36.5829 pct and -68.9989 pct and -34.2069 pct and -69.9581 pct and 8.689 pct
- Lp(a) [1, 11]: 21.786 and 34.264 and 12.009 and 30.399 and 23.273 and 33.09 and 6.532
- pCFB (pct chng from baseline, Lp(a)) [1, 12]: -44.94 pct and -47.7665 pct and -60.9759 pct and -27.3662 pct and -62.6383 pct and -7.387 pct and -32.53 pct and -7.053 pct
- Lp(a) [1, 12]: 27.791 and 30.18 and 11.629 and 34.817 and 28.048 and 46.579 and 14.67
- Lp(a) ([1]; 10mpk BID, Day -1 (pre-dose), individual cynos): 51.607 and 58.876 and 34.406 and 53.514 and 88.739 and 49.824 and 82.77 and 24.664
- Lp(a) ([1]; 10mpk BID, Day -14 (pre-dose), individual cynos): 49.341 and 56.682 and 25.193 and 42.356 and 61.404 and 86.167 and 50.764 and 18.822
- Mean_pCFB ([1]; 2mpk BID, day 1): -1.96
- Mean_pCFB_vs_Veh ([1]; 2mpk BID, day 1): -1.99
- Mean_pCFB ([1]; 2mpk BID, day 3): -18.68
- Mean_pCFB_vs_Veh ([1]; 2mpk BID, day 3): -8.97
- Mean_pCFB ([1]; 2mpk BID, day 5): -39.7
- Mean_pCFB_vs_Veh ([1]; 2mpk BID, day 5): -22.16
- Mean_pCFB ([1]; 2mpk BID, day 9): -33.62
- Mean_pCFB_vs_Veh ([1]; 2mpk BID, day 9): -19.16
- Mean_pCFB ([1]; 2mpk BID, day 14): -22.21
- Mean_pCFB_vs_Veh ([1]; 2mpk BID, day 14): -17.15
- Mean_pCFB ([1]; 10mpk BID, day 1): -0.92
- Mean_pCFB_vs_Veh ([1]; 10mpk BID, day 1): -0.95
- Mean_pCFB ([1]; 10mpk BID, day 3): -42.87
- Mean_pCFB_vs_Veh ([1]; 10mpk BID, day 3): -33.16
- Mean_pCFB ([1]; 10mpk BID, day 5): -56.33
- Mean_pCFB_vs_Veh ([1]; 10mpk BID, day 5): -38.79
- Mean_pCFB ([1]; 10mpk BID, day 9): -44.79
- Mean_pCFB_vs_Veh ([1]; 10mpk BID, day 9): -30.33
- Mean_pCFB ([1]; 10mpk BID, day 14): -36.33
- Mean_pCFB_vs_Veh ([1]; 10mpk BID, day 14): -31.27
- maximum decrease of median Lp(a) levels ([1]; 2 mg kg^−1 oral BID): 45%
- %Lp(a) max decrease (dose, mg/kg) ([1]; 2 mg/kg BID): 40%
- maximum decrease of median Lp(a) levels ([1]; 10 mg kg^−1 oral BID): 57%
- %Lp(a) max decrease (dose, mg/kg) ([1]; 10 mg/kg BID): 56%
- PLG activity (Vmax), Plasminogen (mean of replicates) ([2]; dose 3.7 mpk, 3.7 mg/kg): 240.6 and 263.3 and 236.5 and 207.9 and 235.8
- PLG activity (Vmax), Replicate 1 ([2]; dose 3.7 mpk, 3.7 mg/kg): 239.342 and 259.606 and 234.747 and 204.985 and 233.598
- PLG activity (Vmax), Replicate 2 ([2]; dose 3.7 mpk, 3.7 mg/kg): 241.939 and 266.922 and 238.196 and 210.884 and 238.070
- PLG activity % change from Vehicle ([2]; dose 3.7 mpk, 3.7 mg/kg): -9.88% and -1.40% and -11.44% and -22.12% and -11.68%
- PLG activity (Vmax), Plasminogen (mean of replicates) ([2]; dose 12.3 mpk, 12.3 mg/kg): 282.2 and 249.5 and 239.5 and 205.0 and 186.8
- PLG activity (Vmax), Replicate 1 ([2]; dose 12.3 mpk, 12.3 mg/kg): 284.452 and 249.068 and 238.009 and 201.341 and 183.623
- PLG activity (Vmax), Replicate 2 ([2]; dose 12.3 mpk, 12.3 mg/kg): 279.877 and 249.884 and 240.921 and 208.639 and 189.912
- PLG activity % change from Vehicle ([2]; dose 12.3 mpk, 12.3 mg/kg): 5.68% and -6.57% and -10.32% and -23.23% and -30.05%
- PLG activity (Vmax), Plasminogen (mean of replicates) ([2]; dose 37 mpk, 37 mg/kg): 195.8 and 173.1 and 184.9 and 150.3 and 200.6
- PLG activity (Vmax), Replicate 1 ([2]; dose 37 mpk, 37 mg/kg): 217.532 and 172.649 and 184.379 and 149.241 and 196.980
- PLG activity (Vmax), Replicate 2 ([2]; dose 37 mpk, 37 mg/kg): 174.037 and 173.594 and 185.398 and 151.449 and 204.259
- PLG activity % change from Vehicle ([2]; dose 37 mpk, 37 mg/kg): -26.67% and -35.16% and -30.76% and -43.69% and -24.86%
- plasma plasmin activity measured ex vivo ([2]; rats treated orally at pharmacological doses): decreased plasma plasmin activity
